PMC6905112, “CtcS, a MarR family regulator, regulates chlortetracycline biosynthesis” (BMC Microbiology, 2019)

Assays:
[1] = biological target: His6-tagged recombinant CtcS (Streptomyces aureofaciens F3); assay: SEC; Superdex 200 10/300 column, AKTA FPLC P-920; ovalbumin (44 kD) and lysozyme (14 kD) as standards; purified His6-tagged CtcS
CtcS = biological target: T1, CtcS (Kitasatospora aureofaciens, UniProt S4S3A4); assay: competitive EMSA, release of FAM-labelled ctcS-ctcR intergenic DNA probe; assay type: binding; settings: His6-CtcS 40 ng, probe 40 ng, 20 uL, pH 8.0, 0.0015-5 mM compound
T1 sequence (S4S3A4 1-165): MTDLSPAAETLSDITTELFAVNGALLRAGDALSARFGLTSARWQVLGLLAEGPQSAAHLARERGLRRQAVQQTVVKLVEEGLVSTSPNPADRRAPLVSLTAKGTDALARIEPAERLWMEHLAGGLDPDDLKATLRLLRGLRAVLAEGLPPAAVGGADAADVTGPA

Compound | stoichiometry N [1] | competitive EMSA, release of FAM-labelled ctcS-ctcR intergenic DNA probe (CtcS)
His6-tagged recombinant CtcS (natural protein) | 2 | –
CN(C)[C@@H]1C(=O)C(C(N)=O)=C(O)[C@@]2(O)C(=O)C3=C(O)c4c(O)ccc(Cl)c4[C@@](C)(O)[C@H]3C[C@@H]12 [chlortetracycline] | – | the DNA-binding affinity of CtcS would be decreased by the presence of TC and CTC
CN(C)[C@@H]1C(=O)C(C(N)=O)=C(O)[C@@]2(O)C(=O)C3=C(O)c4c(O)cccc4[C@@](C)(O)[C@H]3C[C@@H]12 [tetracycline] | – | the DNA-binding affinity of CtcS would be decreased by the presence of TC and CTC
